These results are taken from patent US10138254B2, “Bicyclic compounds as pest control agents” (BAYER CROPSCIENCE AKTIENGESELLSCHAFT, priority 2014, dated 2018).

Read-outs that look alike come from different tables or passages of the source.

Data set [1] deals with green peach aphid (Myzus persicae). The data set can be described thus: Myzus persicae spray test (bell pepper plants). It is filed as in vivo. The conditions noted are these: application rate 4 ppm, after 6 days, 100% = all aphids killed. The protocol: Myzus persicae—Spray Test Solvent: 7 parts by weight of dimethylformamide Emulsifier: alkylaryl polyglycol ether To produce a suitable active ingredient formulation, 1 part by weight of active ingredient is dissolved with the specified parts by weight of solvent and made up with water containing an emulsifier concentration of 1000 ppm until the desired concentration is attained. To produce further test concentrations, the formulation is diluted with emulsifier-containing water. If the addition of ammonium salts or/and penetrants is required, these are each added in a concentration of 1000 ppm to the formulation solution. Bell pepper plants (Capsicum annuum) severely infested with the green peach aphid (Myzus persicae) are treated by spraying with the active ingredient formulation in the desired concentration. After 6 days, the kill in % is determined. 100% means that all of the aphids have been killed; 0% means that none of the aphids have been killed.

Data set [2] can be described thus: log P by HPLC on reversed-phase (C18) columns, OECD Guideline 117. It is filed as physicochemical. To be noted: reversed-phase (C18) HPLC column. The protocol: The log P values were determined in accordance with OECD Guideline 117 (EC Directive 92/69/EEC) by HPLC (high-performance liquid chromatography) using reversed-phase (RP) columns (C18), by the following methods: [a] The LC-MS determination in the acidic range is carried out at pH 2.7 with 0.1% aqueous formic acid and acetonitrile (contains 0.1% formic acid) as eluents; linear gradient from 10% acetonitrile to 95% acetonitrile. [b] LC-MS determination in the neutral range is effected at pH 7.8 with 0.001 molar aqueous ammonium hydrogencarbonate solution and acetonitrile as eluents; linear gradient from 10% acetonitrile to 95% acetonitrile. Calibration is carried out using unbranched alkan-2-ones (having 3 to 16 carbon atoms) with known log P values (log P values determined on the basis of the retention times by linear interpolation between two successive alkanones).

Data set [3] deals with green peach aphid (Myzus persicae). The data set is described as follows: Myzus persicae spray test (Chinese cabbage leaf discs). It is filed as in vivo. The conditions noted are these: Myzus persicae, foliar, 144 h, application rate 500 g/ha, after 6 days, 100% = all aphids killed, read-out: efficacy. On the procedure:
Myzus persicae—Spray Test Solvent: 78 parts by weight of acetone • • 1.5 parts by weight of dimethylformamide Emulsifier: alkylaryl polyglycol ether To produce a suitable active ingredient formulation, 1 part by weight of active ingredient is dissolved with the specified parts by weight of solvent and made up with water containing an emulsifier concentration of 1000 ppm until the desired concentration is attained. To produce further test concentrations, the formulation is diluted with emulsifier-containing water. Discs of Chinese cabbage leaves (Brassica pekinensis) infested by all stages of the green peach aphid (Myzus persicae) are sprayed with an active ingredient formulation of the desired concentration. After 6 days, the efficacy in % is determined. 100% means that all the aphids have been killed; 0% means that no aphids have been killed.

Data set [4] concerns larvae of the mustard beetle (Phaedon cochleariae). The data set is described as follows: Phaedon cochleariae spray test (Chinese cabbage leaf discs). It is filed as in vivo. To be noted: application rate 500 g/ha, after 7 days, 100% = all beetle larvae killed. The protocol:
Phaedon cochleariae—Spray Test
(§1) Solvent: 78.0 parts by weight of acetone • • 1.5 parts by weight of dimethylformamide
(§2) Emulsifier: alkylaryl polyglycol ether
(§3) To produce a suitable active ingredient formulation, 1 part by weight of active ingredient is dissolved with the specified parts by weight of solvent and made up with water containing an emulsifier concentration of 1000 ppm until the desired concentration is attained. To produce further test concentrations, the formulation is diluted with emulsifier-containing water.
After 7 days, the efficacy in % is determined. 100% means that all the beetle larvae have been killed; 0% means that no beetle larvae have been killed.

For data set [5], the system named is greenhouse red spider mite (Tetranychus urticae). The data set can be described thus: Tetranychus urticae spray test, OP-resistant (bean leaf discs). The conditions noted are these: application rate 500 g/ha, after 6 days, 100% = all spider mites killed. It is filed as in vivo. On the procedure: Tetranychus urticae—Spray Test, OP-Resistant
as §1, §2, §3
Discs of bean leaves (Phaseolus vulgaris) infested with all stages of the greenhouse red spider mite (Tetranychus urticae) are sprayed with an active ingredient formulation of the desired concentration.
After 6 days, the efficacy in % is determined. 100% means that all the spider mites have been killed; 0% means that no spider mites have been killed.

The mark [6] stands for this setting: acidic range, pH 2.7, 0.1% aqueous formic acid and acetonitrile, read-out: LogP[a].
The mark [7] stands for this setting: neutral range, pH 7.8, 0.001 molar aqueous ammonium hydrogencarbonate and acetonitrile, read-out: logP[b].

In the case of `Cc1cc(C)c([S+]([O-])CC(F)(F)F)cc1-c1cnc2nc(-c3ccc[n+]([O-])c3)sc2c1` (centres unmarked) [Example 21], the “efficacy (kill)” value in data set [1] was determined as 100%. Moreover, the chromatographic logP in data set [2] (setting [6]) turned out to be 1.91; in data set [2] (setting [7]), 1.86.

`Cn1c(=O)cnn(-c2cnc3nc(-c4cccnc4)sc3c2)c1=O` [Example 39, 4-Methyl-2-[2-(pyridin-3-yl)[1,3]thiazolo[4,5-b]pyridin-6-yl]-1,2,4-triazine-3,5(2H,4H)-dione]: the chromatographic logP in data set [2] (setting [6]) was found to be 1.29; in data set [2] (setting [7]) it was 1.36. For the same molecule, the pest or weed control at 500 g/ha in data set [3] stood at 90%. Besides, the efficacy in data set [4] was found to be 83%.

Regarding `Cc1cc(F)c(-c2cnc3nc(-c4cccnc4)sc3c2)cc1SCC(F)(F)F` [Example 22, 6-{2-Fluoro-4-methyl-5-[(2,2,2-trifluoroethyl)sulphanyl]phenyl}-2-(pyridin-3-yl)[1,3]thiazolo[4,5-b]pyridine], the chromatographic logP in data set [2] (setting [6]) worked out at 3.83; in data set [2] (setting [7]), 3.78. Besides, in data set [5], the efficacy was 90%. For the same molecule, the pest or weed control at 500 g/ha in data set [3] came to 100%.
